This is an account of results in patent publication US7049292B2, “Therapeutically effective peptides related to preproinsulin” (King's College London, priority 2004, dated 2006).

The test system of assay [1] is pathogenic (IFN-γ) CD4+ T lymphocytes in PBMCs. Nature of the assay: IFN-γ ELISPOT analysis of PBMCs cultured with peptide. The conditions noted are these: for Prevalence of IFN-γ responses, Totals (%) / Prevalence of IFN-γ responses, Totals (responders/tested): positive response SI≧3.0; for IFN-γ response, stimulation index (SI): PBMCs, peptide 10 μM. The assay is classed as cell-based, human.

Assay [2] concerns anti-inflammatory (IL-10 secreting) CD4+ T lymphocytes in PBMCs. The assay is classed as cell-based, human. Conditions: for IL-10 response, stimulation index (SI): PBMCs, peptide 10 μM.
[3] abbreviates: T1DM patients with HLA-DR4 alleles.
Where [4] appears, read: T1DM patients with non-DR4 alleles.
Where [5] appears, read: non-diabetic control subject C9.
Setting [6] is: patient #3, T1DM with HLA-DR4 alleles.
Where [7] appears, read: patient #5, T1DM with HLA-DR4 alleles.
Setting [8] is: patient #6, T1DM with HLA-DR4 alleles.
[9] abbreviates: patient #24, T1DM with HLA-DR4 alleles.
Where [10] appears, read: patient #27, T1DM with non-DR4 alleles.
Setting [11] is: non-diabetic control subject C4.
The mark [12] stands for this setting: non-diabetic control subject C8.
[13] abbreviates: patient #35, T1DM with non-DR4 alleles.
The mark [14] stands for this setting: patient #4, T1DM with HLA-DR4 alleles.
Where [15] appears, read: patient #13, T1DM with HLA-DR4 alleles.
Where [16] appears, read: patient #19, T1DM with HLA-DR4 alleles.
Setting [17] is: non-diabetic control subject C13.
Where [18] appears, read: patient #12, T1DM with HLA-DR4 alleles.
Where [19] appears, read: patient #26, T1DM with non-DR4 alleles.
Setting [20] is: non-diabetic control subjects, positive response SI≧3.0.

Several values for one entry are separate records, joined by “and”; a condition that tells them apart may be missing. Equal values may be shown once. Read-outs that look alike come from different tables or passages of the source.

As for “652–80: IA-2 peptide sequence, residues 652–80 (SRVSSVSSQFSDAAQASPSSHSSTPSWCE; UniProt Q16849 652-680, looked up, fragment)”, the results for the “Prevalence of IFN-γ responses, Totals (%)” value (“Prevalence … (%)” below) in assay [1] (setting [3]), in assay [1] (setting [4]) and in assay [1] (non-diabetic control subjects) were “(24) %”, “(9) %” and “(7) %”, respectively. Further, the “Prevalence of IFN-γ responses, Totals (responders/tested)” value in assay [1] (setting [3]) was 6/25; in assay [1] (setting [4]), 1/11; in assay [1] (non-diabetic control subjects), 1/14. In addition, the “IFN-γ response, stimulation index (SI)” value in assay [1] (setting [5]) came to 3.8; in assay [1] (patient #2, T1DM with HLA-DR4 alleles), 3.1; in assay [1] (setting [6]), 3.0; in assay [1] (setting [7]), 6.2; in assay [1] (setting [8]), 23.2; in assay [1] (patient #7, T1DM with HLA-DR4 alleles), 6.4. Besides, the “IFN-γ response, stimulation index (SI)” value in assay [1] (setting [9]) amounted to 36.0; in assay [1] (setting [10]), 16.7. Moreover, the “Prevalence of IL-10 responses, Totals (responders/tested)” value in assay [2] is 2/17 and 1/7 and 4/14. The “IL-10 response, stimulation index (SI)” value in assay [2] (setting [11]) was 5.3; in assay [2] (setting [12]) it was 4.0; in assay [2] (setting [5]), 3.5; in assay [2] (non-diabetic control subject C10), 8.4; in assay [2] (setting [6]), 4.8; in assay [2] (setting [9]), 4.5. Besides, the “IL-10 response, stimulation index (SI)” value in assay [2] (setting [13]) was found to be 8.0.

For the substance “793–817: IA-2 peptide sequence, residues 793–817 (DFWQMVWESGCTVIVMLTPLVEDGV; UniProt Q16849 793-817, looked up, fragment)”, the entries for the “Prevalence … (%)” value in assay [1] (setting [3]), in assay [1] (setting [4]) and in assay [1] (non-diabetic control subjects) were “(12) %”, “(0) %” and “(0) %”, respectively. In addition, the “Prevalence of IFN-γ responses, Totals (responders/tested)” value in assay [1] (setting [3]) is listed as 3/25; in assay [1] (setting [4]), 0/11; in assay [1] (non-diabetic control subjects), 0/14. Also, the “IFN-γ response, stimulation index (SI)” value was 9.7 in assay [1] (setting [6]), 3.5 in assay [1] (setting [14]), 4.1 in assay [1] (setting [15]) and 19.0 in assay [1] (setting [16]). Moreover, in assay [2], the “Prevalence of IL-10 responses, Totals (responders/tested)” value is 1/17 and 1/7 and 2/14. Besides, the “IL-10 response, stimulation index (SI)” value in assay [2] (setting [11]) came out at 3.4; in assay [2] (setting [17]) it was 3.5; in assay [2] (setting [6]) it was 3.0; in assay [2] (setting [10]), 34.0.

Take “KLKVESSPSRSDYINASPIIEHDP [752–75, IA-2 peptide eluted from HLA-DR4]”: the “Prevalence … (%)” value in assay [1] (setting [3]) is given as “(32) %”; in assay [1] (setting [4]), “(9) %”; in assay [1] (non-diabetic control subjects), “(0) %”. Also, the “Prevalence of IFN-γ responses, Totals (responders/tested)” value in assay [1] (setting [3]) was 8/25; in assay [1] (setting [4]), 1/11; in assay [1] (non-diabetic control subjects), 0/14. Moreover, the “IFN-γ response, stimulation index (SI)” value in assay [1] (setting [6]) stood at 4.3; in assay [1] (patient #10, T1DM with HLA-DR4 alleles), 12.3; in assay [1] (setting [18]) it was 3.3; in assay [1] (setting [15]), 3.4; in assay [1] (setting [16]), 7.0; in assay [1] (patient #20, T1DM with HLA-DR4 alleles), 3.9. The “IFN-γ response, stimulation index (SI)” value in assay [1] (patient #23, T1DM with HLA-DR4 alleles) was determined as 3.6; in assay [1] (setting [19]) it was 3.0. Besides, the “Prevalence of IL-10 responses, Totals (responders/tested)” value is 3/17 in assay [2] (T1DM patients with HLA-DR4 alleles, positive response SI≧3.0); 2/7 and 2/14 in assay [2] (listed as 725–75). Moreover, the “IL-10 response, stimulation index (SI)” value in assay [2] (non-diabetic control subject C3) is reported as 8.7; in assay [2] (setting [12]) it was 16.0; in assay [2] (setting [6]), 16.0; in assay [2] (setting [18]), 3.79; in assay [2] (setting [9]), 15.0; in assay [2] (setting [10]), 33.0. Further, the “IL-10 response, stimulation index (SI)” value in assay [2] (setting [13]) was 4.0.

In the case of “955–76: IA-2 peptide sequence, residues 955–76 (SKDQFEFALTAVAEEVNAILKA; UniProt Q16849 955-976, looked up, fragment)”, the “Prevalence … (%)” value in assay [1] (setting [3]) is recorded as “(16) %”; in assay [1] (setting [4]), “(18) %”; in assay [1] (non-diabetic control subjects), “(0) %”. For the same substance, the “Prevalence of IFN-γ responses, Totals (responders/tested)” value in assay [1] (setting [3]) is 4/25; in assay [1] (setting [4]) it was 2/11; in assay [1] (non-diabetic control subjects) it was 0/14. Further, the “IFN-γ response, stimulation index (SI)” value in assay [1] (setting [6]) turned out to be 4.7; in assay [1] (setting [14]), 3.0; in assay [1] (setting [8]), 11.2; in assay [1] (setting [16]), 3.0; in assay [1] (setting [9]), 38.0; in assay [1] (setting [19]), 5.0. Moreover, in assay [1] (patient #30, T1DM with non-DR4 alleles), the “IFN-γ response, stimulation index (SI)” value is 4.7. Further, the “Prevalence of IL-10 responses, Totals (responders/tested)” value in assay [2] was 2/17 and 1/7; in assay [2] (setting [20]), 3/14. Moreover, the “IL-10 response, stimulation index (SI)” value in assay [2] (setting [11]) worked out at 5.6; in assay [2] (setting [12]) it was 15.0; in assay [2] (non-diabetic control subject C11), 5.2; in assay [2] (setting [6]) it was 3.0; in assay [2] (setting [9]), 29.5; in assay [2] (setting [10]), 4.0.

For “LAKEWQALCAYQAEPNTCATAQGEGNIK [709–36, IA-2 peptide eluted from HLA-DR4]”, the “Prevalence … (%)” value in assay [1] (setting [3]) is listed as “(12) %”; in assay [1] (setting [4]), “(0) %”; in assay [1] (non-diabetic control subjects), “(0) %”. The “Prevalence of IFN-γ responses, Totals (responders/tested)” value is 3/25 in assay [1] (setting [3]), 0/11 in assay [1] (setting [4]) and 0/14 in assay [1] (non-diabetic control subjects). Moreover, the figures for the “IFN-γ response, stimulation index (SI)” value in assay [1] (setting [8]), in assay [1] (setting [16]) and in assay [1] (setting [9]) were 9.2, 5.0 and 10.5, respectively. Besides, the “Prevalence of IL-10 responses, Totals (responders/tested)” value was 2/17 and 1/7 in assay [2]; 3/14 in assay [2] (setting [20]). The “IL-10 response, stimulation index (SI)” value in assay [2] (setting [11]) came to 3.6; in assay [2] (non-diabetic control subject C6), 3.2; in assay [2] (setting [17]), 3.8; in assay [2] (setting [7]), 3.5; in assay [2] (setting [9]), 9.0; in assay [2] (setting [10]), 7.0.

For “SFYLKNVQTQETRTLTQFHF [853–72, IA-2 peptide eluted from HLA-DR4]”, the “Prevalence … (%)” value in assay [1] (setting [3]) was “(28) %”; in assay [1] (setting [4]) it was “(18) %”; in assay [1] (non-diabetic control subjects) it was “(7) %”. For the same substance, the figures for the “Prevalence of IFN-γ responses, Totals (responders/tested)” value in assay [1] (setting [3]), in assay [1] (setting [4]) and in assay [1] (non-diabetic control subjects) were 7/25, 2/11 and 1/14, respectively. The “IFN-γ response, stimulation index (SI)” value is 4.7 in assay [1] (setting [5]); 10.0 in assay [1] (patient #1, T1DM with HLA-DR4 alleles); 10 in assay [1] (setting [6]); 6.6 in assay [1] (setting [8]); 5.2 in assay [1] (patient #9, T1DM with HLA-DR4 alleles); 3.6 in assay [1] (setting [15]). Further, the “IFN-γ response, stimulation index (SI)” value is 48.3 in assay [1] (setting [9]); 3.1 in assay [1] (setting [10]); 3.7 in assay [1] (patient #34, T1DM with non-DR4 alleles). Moreover, in assay [2], the “Prevalence of IL-10 responses, Totals (responders/tested)” value is 2/17 and 2/7 and 2/14. In addition, the “IL-10 response, stimulation index (SI)” value in assay [2] (non-diabetic control subject C5) is 4.7; in assay [2] (setting [12]) it was 66.0; in assay [2] (setting [8]), 4.3; in assay [2] (setting [9]), 9.0; in assay [2] (setting [10]) it was 20.0; in assay [2] (setting [13]), 9.6.
